Earlier results as cited in patent US20160067273A1, “Compositions and methods for preparation of synthetic alpha-gal nanoparticles and for their clinical use” (priority 2014, published 2016).

Test system: human natural anti-Gal antibody
Conditions: equilibrium dialysis

Row | Structure (SMILES) | fold by which affinity of anti-Gal to Galα1-3Galβ1-4GlcNAc is higher than the affinity to this carbohydrate | also measured
1 | OC[C@H]1O[C@H](OCC2O[C@@H](O)[C@H](O)[C@@H](O)[C@@H]2O)[C@H](O)[C@@H](O)[C@H]1O (some centres unmarked) [melibiose, Galα1-6Glc] | 300 fold | 
2 | CO[C@@H]1O[C@H](CO)[C@H](O)[C@H](O)[C@H]1O [methyl-galactoside] | 300 fold | 
3 | OC[C@H]1O[C@H](O[C@H]2[C@@H](O)[C@@H](CO)OC(O)[C@@H]2O)[C@H](O)[C@@H](O)[C@H]1O (some centres unmarked) [Galα1-3Gal] | 10 fold | 
4 | CC(=O)N[C@H]1C(O)O[C@H](CO)[C@@H](O[C@@H]2O[C@H](CO)[C@H](O)[C@H](O[C@H]3O[C@H](CO)[C@H](O)[C@H](O)[C@H]3O)[C@H]2O)[C@@H]1O (some centres unmarked) [Galα1-3Galβ1-4GlcNAc] |  | affinity (strength of binding) of anti-Gal to synthetic free oligosaccharide, rank: highest
5 | OC[C@H]1O[C@H](O[C@H]2[C@@H](O)[C@@H](CO)O[C@@H](O[C@H]3[C@H](O)[C@@H](O)C(O)O[C@@H]3CO)[C@@H]2O)[C@H](O)[C@@H](O)[C@H]1O (some centres unmarked) [Galα1-3Galβ1-4Glc] |  | affinity of anti-Gal lower than that to Galα1-3Galβ1-4GlcNAc: approximately 30%
